{"source": "paper PMC9227536", "about": "“Prediction of Pharmacokinetics of IDP-73152 in Humans Using Physiologically-Based Pharmacokinetics” (Pharmaceutics, 2022)", "key": {"[1]": {"test": "PK study in dogs (intravenous and oral)", "type": "in vivo", "experimental": "The in vivo experimental protocol was approved by the Institutional Animal Care and Use Committee of Research Laboratory at Ildong pharmaceutical Co., Ltd. (Ref. No.: IDL-PDF-001 and 09005-11004). Animals were acclimatized to the laboratory conditions for at least 1 week before the experiments and were kept in the standardized conditions (20–25 °C, 55 ± 5% humidity, and a 12 h light/dark cycle). The animals fasted overnight prior to drug administration, and food was resupplied 4 h post-dose.\nMale beagle dogs (body weight 9.55–10.3 kg, Beijing Marshall Biotechnology, Beijing, China) received a single intravenous dose of 10 mg/kg IDP-73152 via the cephalic vein (i.e., the injection volume of 1 mL/kg, IDP-73152 in saline). When necessary, a single dose of IDP-73152 at 20 mg/kg was also orally administered to dogs in the form of hard gelatin capsules. Blood samples were collected from the jugular vein at 0.167, 0.33, 0.5, 1, 2, 4, and 8 h (for intravenous administration study), and 0.167, 0.33, 0.5, 1, 2, 4, 6, and 8 h (for oral administration study) after the administration. Plasma was separated/collected from the blood sample by centrifugation for 5 min at 10,000× g/4 °C and stored at −80 °C until the analysis.\nWhen necessary for a model independent PK analysis, a standard moment analysis was carried out with WinNonlin software using either representative (for the study with mice) or individual (for the study with rats, dogs, and humans) concentration–time profile(s). For the calculation of PBPK models, Berkeley Madonna 8.3.18 (Albany, CA, USA) was used with the fourth-order Runge–Kutta method for numerical integration."}, "[2]": {"test": "Biliary and renal excretion in bile duct-cannulated rats", "type": "in vivo", "conditions": "intravenous 5 mg/kg, up to 8 h", "experimental": "Male Sprague Dawley rats (Orient Bio Inc., Seongnam, Korea), weighing 194.7 g to 205.4 g, were used in this study. IDP-73152 was administered to rats at a single dose of 2.5, 5, or 10 mg/kg via tail vein injection (the injection volume fixed at 2 mL/kg in saline). […] Blood samples (100 μL) were collected from the jugular vein at 0.167, 0.33, 0.5, 1, 2, 4, and 8 h after the administration. Plasma was separated/collected by centrifugation of the blood samples for 5 min at 10,000× g/4 °C and stored at −80 °C until analysis. When necessary, the biliary and renal excretion of IDP-73152 were studied in bile duct-cannulated rats after the intravenous injection (5 mg/kg) to investigate its route(s) of excretion in rats. Bile and urine samples were collected up to 8 h (i.e., approximately 5 times of the terminal phase half-life) after the administration and the samples were stored at −80 °C until the analysis. The cumulative excretion of the bile and the urine to infinite time was determined by assuming that the excretion was practically completed by the last collection time."}, "the bacterial strains": {"system": "the bacterial strains", "test": "In vitro minimum inhibitory concentration, preliminary screening", "type": "cell-based", "conditions": "preliminary screening study, against the bacterial strains"}, "hepatic CYP3A": {"system": "hepatic CYP3A", "test": "Preliminary studies of metabolic pathway", "type": "in vitro ADME"}, "[3]": {"conditions": "male, beagle, dog, plasma, dogs, oral 20 mg/kg, hard gelatin capsules"}}, "note": "Read-outs that look alike come from different tables or passages of the source.", "data": [{"smiles": "CC(C)(C)[C@H](NC(=O)[C@H](CC1CCCC1)CN(O)C=O)C(=O)N1CCC(NCc2cc(F)c(F)cc2F)CC1", "note": "[IDP-73152]", "values": [{"measurement": "CLp", "setting": "[1]; dogs, intravenous 10 mg/kg, 10 mg/kg", "value": "0.664 ± 0.259", "unit": "L/h/kg"}, {"measurement": "AUC(0-inf)", "setting": "[1]; male, beagle, dog, plasma, iv, 10 mg/kg", "value": "16600 ± 5900", "unit": "ng·h/mL"}, {"measurement": "clearance", "setting": "[1]; male, beagle, dog, plasma, iv, 10 mg/kg, dogs, intravenous 10 mg/kg, read-out: CLp (converted)", "value": 10.3, "unit": "mL/min/kg"}, {"measurement": "Vd", "setting": "[1]; male, beagle, dog, plasma, dogs, intravenous 10 mg/kg, moment analysis, read-out: Vss", "value": "1.15 ± 0.46", "unit": "L/kg"}, {"measurement": "half-life", "setting": "[1]; male, beagle, dog, plasma, dogs, intravenous 10 mg/kg, read-out: t1/2 (converted)", "value": "70.8 ± 8.4", "unit": "min"}, {"measurement": "bioavailability", "setting": "[1]; male, beagle, dog, plasma, dogs, oral 20 mg/kg vs intravenous 10 mg/kg, read-out: F (bioavailability)", "value": 95.5, "unit": "%"}, {"measurement": "AUC(0-inf)", "setting": "[1]; [3]", "value": "31600 ± 5900", "unit": "ng·h/mL"}, {"measurement": "Cmax", "setting": "[1]; [3]", "value": "10500 ± 2000", "unit": "ng/mL"}, {"measurement": "Tmax", "setting": "[1]; [3]", "value": "46.6 ± 23.2", "unit": "min"}, {"measurement": "half-life", "setting": "[1]; male, beagle, dog, plasma, dogs, oral 20 mg/kg, hard gelatin capsules, read-out: t1/2 (terminal phase half-life) (converted)", "value": "109 ± 2.4", "unit": "min"}, {"measurement": "biliary recovery of intact drug", "setting": "[2]", "value": "0.512 ± 0.154 % of the dose"}, {"measurement": "urinary recovery of intact drug", "setting": "[2]", "value": "1.21 ± 0.48 % of the dose"}, {"measurement": "in vitro minimum inhibitory concentration values", "setting": "the bacterial strains", "value": "comparable to, or less than, those of linezolid and vancomycin"}, {"measurement": "primary metabolic pathway", "setting": "hepatic CYP3A", "value": "mediated by hepatic CYP3A"}]}]}
